From ChEMBL document CHEMBL3351963 (Bioorg Med Chem Lett, 2014)
In brackets after ≈: the same amount, converted by molar mass.

Tests used:
Liver cytosol = experiment: Prodrug conversion in rat liver cytosol assessed as half life for metformin formation at 100 uM in presence of a NADPH-regenerating system by HPLC method; format: ADME, tissue-based
[1] = Retention time of the compound by HPLC method; format: physicochemical
[2] = Prodrug conversion in human liver S9 fraction assessed as half life for metformin formation at 100 uM in presence of 1 mM reduced glutathione by HPLC method; format: ADME, subcellular; settings: gsh
[3] = Distribution coefficient, logD of the compound in mixture of 1-octanol and 50 mM phosphate buffer pH 7.4 by HPLC method; format: physicochemical; settings: 1-octanol/50 mM phosphate buffer
[4] = Stability in pH 1.0 HCl buffer solution measured over 3 weeks by HPLC method; format: physicochemical; settings: pH 1, 504 h
[5] = Aqueous solubility in pure water incubated for 1 hr by HPLC based shake flask method; format: physicochemical
[6] = Stability in pH 7.4 buffer solution; format: physicochemical
[7] = biological target: T1, Glutathione S-transferase Mu 2 (Homo sapiens, UniProt P28161); experiment: Prodrug conversion assessed as half life for human recombinant GST-M2-mediated metformin formation at 100 uM in presence of 1 mM reduced glutathione by HPLC method; format: ADME; settings: gsh
T1 sequence (P28161 whole entry): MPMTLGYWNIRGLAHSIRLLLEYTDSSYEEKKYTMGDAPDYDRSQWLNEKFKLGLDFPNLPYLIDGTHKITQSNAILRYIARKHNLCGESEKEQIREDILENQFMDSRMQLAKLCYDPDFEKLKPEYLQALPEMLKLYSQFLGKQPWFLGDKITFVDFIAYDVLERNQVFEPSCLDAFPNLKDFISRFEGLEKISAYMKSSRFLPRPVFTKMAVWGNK

[8] = Stability in rat liver S9 fraction at 100 uM after 24 hrs in absence of 1 mM reduced glutathione at 37 degC by HPLC method; format: ADME; settings: s9, 24 h
Intestine = experiment: Stability in rat small intestine homogenates by HPLC method; format: ADME, tissue-based; settings: tissue homogenate
[9] = Stability in presence of 1 mM reduced glutathione at 100 uM after 24 hrs at 37 degC by HPLC method; format: physicochemical
Liver microsome = experiment: Prodrug conversion in rat liver microsomes assessed as half life for metformin formation at 100 uM in presence of a NADPH-regenerating system by HPLC method; format: ADME
[10] = Prodrug conversion in rat liver S9 fraction assessed as half life for metformin formation at 100 uM in presence of 1 mM reduced glutathione by HPLC method; format: ADME, subcellular; settings: gsh
[11] = Prodrug conversion in rat liver S9 fraction assessed as […] GST-mediated metformin formation at 10 to 200 uM in presence of 1 mM reduced glutathione by Michaelis-Menten method; format: ADME, subcellular; settings: s9, 200 µM
[12] = biological target: T2, Glutathione S-transferase A1 (Homo sapiens, UniProt P08263); experiment: Prodrug conversion assessed as half life for human recombinant GST-A1-mediated metformin formation at 100 uM in presence of 1 mM reduced glutathione by HPLC method; format: ADME; settings: gsh
T2 sequence (P08263 whole entry): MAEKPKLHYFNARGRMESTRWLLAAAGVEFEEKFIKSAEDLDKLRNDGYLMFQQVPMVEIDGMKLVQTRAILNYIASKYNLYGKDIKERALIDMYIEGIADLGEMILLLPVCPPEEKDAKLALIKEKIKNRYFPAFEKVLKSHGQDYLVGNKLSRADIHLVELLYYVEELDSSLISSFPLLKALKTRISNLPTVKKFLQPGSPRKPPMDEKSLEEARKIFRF

[13] = biological target: Glutathione S-transferase P (Homo sapiens, UniProt P09211); experiment: Prodrug conversion assessed as half life for human recombinant GST-P1-mediated metformin formation at 100 uM in presence of 1 mM reduced glutathione by HPLC method; format: ADME; settings: gsh
Chain of Glutathione S-transferase P (P09211 whole entry): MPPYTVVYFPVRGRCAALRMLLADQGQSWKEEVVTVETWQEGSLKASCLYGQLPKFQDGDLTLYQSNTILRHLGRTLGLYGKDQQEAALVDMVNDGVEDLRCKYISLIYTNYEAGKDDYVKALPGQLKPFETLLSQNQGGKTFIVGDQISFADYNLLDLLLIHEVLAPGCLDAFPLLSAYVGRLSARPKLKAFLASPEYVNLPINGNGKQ

[14] = Stability in rat liver S9 fraction at 100 uM after 24 hrs in presence of 1 mM reduced glutathione at 37 degC by HPLC method; format: ADME, subcellular; settings: s9, 24 h

Row | SMILES | Retention_time [1] [min] | Stability [6] | Km [11] [µM] | Vmax [11] [nmol/mg/min] | Stability [14] | other results
1 | CN(C)C(=N)/N=C(\N)NS(=O)(=O)c1ccc(C(F)(F)F)cc1[N+](=O)[O-] | 3 | Stable | 106 | 8.86 | – | t1/2 (Liver cytosol): 4.6642 h; t1/2 [2]: 6.0382 h; logD [3]: 0.86; Stability [4]: Stable; solubility thermodynamic at 1 h [5]: 360 µg/mL (≈ 942 µM); t1/2 [7]: 6.1045 h; Stability [8]: Stable; Stability (Intestine): Stable; Stability [9]: Stable; t1/2 (Liver microsome): 9.4752 h; t1/2 [10]: 3.7668 h; t1/2 [12]: 6.337 h; t1/2 [13]: 6.8675 h
2 | CN(C)C(=N)N=C(N)N [METFORMIN] | 15 | – | – | – | – | –
3 | CN(C)C(=N)/N=C(\N)NS(=O)(=O)c1ccc([N+](=O)[O-])cc1 | 3 | Stable | – | – | Stable | –
4 | CCC[C@@]1(CCc2ccccc2)CC(O)=C([C@H](CC)c2cccc(NS(=O)(=O)c3ccc(C#N)cn3)c2)C(=O)O1 | – | – | 143 | 13.9 | – | –
5 | CN(C)C(=N)/N=C(\N)NS(=O)(=O)c1ccccc1[N+](=O)[O-] | 3 | Stable | – | – | Stable | –
